Source: US10045983B2, “Heteroaryl pyridone and aza-pyrodine compounds” (Genentech, Inc., priority 2011, dated 2018)

Test: CD69 Whole Blood Assay (CD69 Hu Blood FACS)
Format: cell-based, human
Conditions: Lymphocyte; human whole blood, anti-IgM activated B lymphocytes, FACS; IC70; Table 2 (unit inferred); read-out: CD69 Hu Blood FACS (IC70)
Summary of the method: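 Human whole blood stimulated by crosslinking surface IgM with goat F(ab′)2 anti-human IgM; inhibition of CD69 expression on B lymphocytes measured by flow cytometry.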

Row | Compound | IC70 [nM]
1 | Cn1cc(-c2ccnc(N3CCn4c(cc5c4CC(C)(C)C5)C3=O)c2CO)cc(Nc2cc(C(C)(C)C)on2)c1=O [Example 294, 3-[4-[5-[(5-tert-butylisoxazol-3-yl)amino]-1-methyl-6-oxo-3-pyridyl]-3-(hydroxymethyl)-2-pyridyl]-7,7-dimethyl-1,2,6,8-tetrahydrocyclopenta[3,4]pyrrolo[3,5-b]pyrazin-4-one] | 276
2 | C[C@H]1COCCN1C(=O)c1ccc(Nc2cc(-c3ccnc(N4CCn5c(cc6c5CC(C)(C)C6)C4=O)c3CO)nn(C)c2=O)nc1 [Example 256, 3-[3-(hydroxymethyl)-4-[1-methyl-5-[[5-[(3 S)-3-methylmorpholine-4-carbonyl]-2-pyridyl]amino]-6-oxo-pyridazin-3-yl]-2-pyridyl]-7,7-dimethyl-1,2,6,8-tetrahydrocyclopenta[3,4]pyrrolo[3,5-b]pyrazin-4-one] | 80
